The assay is described as follows: DPPH antioxidant (radical scavenging) test. The conditions noted are these: 1 mM; absorbance relative to control, 517 nm, 30 minutes. As to the method: In order to measure the antioxidant effect of the ginseng extract prepared by the method of the present invention, a DPPH (1,1-diphenyl-2-picrylhydrazyl) method was used. DPPH is a color-developed radical, and can be used to directly confirm the radical removing ability of the same. […] An absorbance was measured at 517 nm to determine the amount of the remaining DPPH. The blank of this test is distilled water or a solvent, and a control is an experimental group composed only of DPPH and distilled water without the sample. The antioxidant ability (Radical Scavenging activity: RSA) was determined by the following equation 1, compared with the absorbances of the controls, and the lowered ratios are shown in Table 2. RSA (%)=[Absorbance of Hydroxylate/Absorbance of Control]×100 [Equation 1]

Regarding `O=C1O[C@H]([C@@H](O)CO)C(O)=C1O` [Vitamin C], the “RSA (%)” value is reported as 35%.

(Values after patent US20070224297A1, “Method for increasing content of physiologically active substance in ginseng” (priority 2006, published 2007).)
